Results as given in ChEMBL document CHEMBL2440076, “New triarylpyrazoles as broad-spectrum anticancer agents: design, synthesis, and biological evaluation” (Eur J Med Chem, 2013).

How the values were obtained:
PC-3 = assay: Growth inhibition of human PC3 cells assessed as cell growth at 10 uM after 48 hrs by sulforhodamine B assay; assay type: functional; settings: PC-3, 48 h, read-out: Activity
SW-620 = assay: Growth inhibition of human SW620 cells after 48 hrs by sulforhodamine B assay; assay type: functional; settings: SW-620, 48 h
HT-29 [1] = assay: Growth inhibition of human HT-29 cells after 48 hrs by sulforhodamine B assay; assay type: functional; settings: HT-29, 48 h
[2] = Growth inhibition of human HCC2998 cells after 48 hrs by sulforhodamine B assay; assay type: functional; settings: HCC 2998, 48 h
NCI-H460 = assay: Growth inhibition of human NCI-H460 cells after 48 hrs by sulforhodamine B assay; assay type: functional; settings: NCI-H460, 48 h
NCI-H226 [3] = assay: Growth inhibition of human NCI-H226 cells after 48 hrs by sulforhodamine B assay; assay type: functional; settings: NCI-H226, 48 h
HOP-92 = assay: Growth inhibition of human HOP92 cells after 48 hrs by sulforhodamine B assay; assay type: functional, cell-based; settings: HOP-92, 48 h
A549 [4] = assay: Growth inhibition of human A549/ATCC cells after 48 hrs by sulforhodamine B assay; assay type: functional; settings: A549, 48 h
786-0 = assay: Growth inhibition of human 786-0 cells assessed as cell growth at 10 uM after 48 hrs by sulforhodamine B assay; assay type: functional; settings: 786-0, 48 h, read-out: Activity
SK-OV-3 = assay: Growth inhibition of human SKOV3 cells assessed as cell growth at 10 uM after 48 hrs by sulforhodamine B assay; assay type: functional; settings: SK-OV-3, 48 h, read-out: Activity
UACC-257 = assay: Growth inhibition of human UACC257 cells assessed as cell growth at 10 uM after 48 hrs by sulforhodamine B assay; assay type: functional; settings: UACC-257, 48 h, read-out: Activity
SK-MEL-28 = assay: Growth inhibition of human SK-MEL-28 cells assessed as cell growth at 10 uM after 48 hrs by sulforhodamine B assay; assay type: functional; settings: SK-MEL-28, 48 h, read-out: Activity
U-251 [5] = assay: Growth inhibition of human U251 cells assessed as cell growth at 10 uM after 48 hrs by sulforhodamine B assay; assay type: functional; settings: U-251, 48 h, read-out: Activity
SNB-19 = assay: Growth inhibition of human SNB19 cells assessed as cell growth at 10 uM after 48 hrs by sulforhodamine B assay; assay type: functional; settings: SNB-19, 48 h, read-out: Activity
HT-29 [6] = assay: Growth inhibition of human HT-29 cells assessed as cell growth at 10 uM after 48 hrs by sulforhodamine B assay; assay type: functional; settings: HT-29, 48 h, read-out: Activity
HCT-116 = assay: Growth inhibition of human HCT116 cells assessed as cell growth at 10 uM after 48 hrs by sulforhodamine B assay; assay type: functional; settings: HCT-116, 48 h, read-out: Activity
NCI-H23 = assay: Growth inhibition of human NCI-H23 cells assessed as cell growth at 10 uM after 48 hrs by sulforhodamine B assay; assay type: functional; settings: NCI-H23, 48 h, read-out: Activity
NCI-H226 [7] = assay: Growth inhibition of human NCI-H226 cells assessed as cell growth at 10 uM after 48 hrs by sulforhodamine B assay; assay type: functional; settings: NCI-H226, 48 h, read-out: Activity
MDA-MB-468 = assay: Growth inhibition of human MDA-MB-468 cells after 48 hrs by sulforhodamine B assay; assay type: functional, cell-based; settings: MDA-MB-468, 48 h
T47D = assay: Growth inhibition of human T47D cells after 48 hrs by sulforhodamine B assay; assay type: functional
MCF7 = assay: Growth inhibition of human MCF7 cells after 48 hrs by sulforhodamine B assay; assay type: functional; settings: MCF7, 48 h
A498 = assay: Growth inhibition of human A498 cells after 48 hrs by sulforhodamine B assay; assay type: functional, cell-based; settings: A498, 48 h
ACHN = assay: Growth inhibition of human ACHN cells after 48 hrs by sulforhodamine B assay; assay type: functional
[8] = Growth inhibition of human NCI-ADR-RES cells after 48 hrs by sulforhodamine B assay; assay type: functional
OVCAR-3 = assay: Growth inhibition of human OVCAR3 cells after 48 hrs by sulforhodamine B assay; assay type: functional, cell-based; settings: OVCAR-3, 48 h
IGROV-1 = assay: Growth inhibition of human IGROV1 cells after 48 hrs by sulforhodamine B assay; assay type: functional; settings: IGROV-1, 48 h
SNB-75 = assay: Growth inhibition of human SNB75 cells after 48 hrs by sulforhodamine B assay; assay type: functional; settings: SNB-75, 48 h
U-251 [9] = assay: Growth inhibition of human U251 cells after 48 hrs by sulforhodamine B assay; assay type: functional; settings: U-251, 48 h
SF-539 = assay: Growth inhibition of human SF539 cells after 48 hrs by sulforhodamine B assay; assay type: functional; settings: SF-539, 48 h
SF-295 = assay: Growth inhibition of human SF295 cells after 48 hrs by sulforhodamine B assay; assay type: functional, cell-based; settings: SF-295, 48 h
HOP-62 = assay: Growth inhibition of human HOP62 cells assessed as cell growth at 10 uM after 48 hrs by sulforhodamine B assay; assay type: functional; settings: HOP-62, 48 h, read-out: Activity
A549 [10] = assay: Growth inhibition of human A549/ATCC cells assessed as cell growth at 10 uM after 48 hrs by sulforhodamine B assay; assay type: functional; settings: A549, 48 h, read-out: Activity
HL-60(TB) = assay: Growth inhibition of human HL-60(TB) cells assessed as cell growth at 10 uM after 48 hrs by sulforhodamine B assay; assay type: functional; settings: HL-60, 48 h, read-out: Activity
[11] = read-out: LC50 (the source's name)

## COc1cc(-c2nn(-c3cccc(NC(=O)Nc4cccc(C(F)(F)F)c4)c3)cc2-c2ccncc2)ccc1Cl
PC-3
  growth at 10 µM: -23%
SW-620
  GI50: 1230 nM
  TGI: 14.3 µM
SW-620; [11]
  CC50: 50 µM
HT-29 [1]
  GI50: 748 nM
  TGI: 1870 nM
HT-29 [1]; [11]
  CC50: 4.67 µM
[2]
  GI50: 1190 nM
  TGI: 3.2 µM
[2]; [11]
  CC50: 15.3 µM
NCI-H460
  GI50: 763 nM
  LC50: > 50 µM
  TGI: 3.53 µM
NCI-H226 [3]
  GI50: 1380 nM
  TGI: > 50 µM
NCI-H226 [3]; [11]
  CC50: > 50 µM
HOP-92
  GI50: 557 nM
  IC50: 560 nM
  LC50: > 50 µM
  TGI: 1770 nM
A549 [4]
  GI50: 794 nM
  LC50 (concentration killing 50% of starting cells): > 50 µM
  TGI: > 50 µM
786-0
  growth at 10 µM: -15%
SK-OV-3
  growth at 10 µM: 4.13%
UACC-257
  growth at 10 µM: -52.9%
SK-MEL-28
  growth at 10 µM: -18.6%
U-251 [5]
  growth at 10 µM: -82.2%
SNB-19
  growth at 10 µM: 23.5%
HT-29 [6]
  growth at 10 µM: -64%
HCT-116
  growth at 10 µM: 0.06%
NCI-H23
  growth at 10 µM: -12.4%
NCI-H226 [7]
  growth at 10 µM: 4.3%
MDA-MB-468
  GI50: 598 nM
  IC50: 600 nM
  TGI: 2160 nM
MDA-MB-468; [11]
  CC50: 50 µM
T47D
  GI50: 1650 nM
  TGI: > 50 µM
T47D; [11]
  CC50: 50 µM
MCF7
  GI50: 751 nM
  LC50: > 50 µM
  TGI: 7.72 µM
A498
  GI50: 958 nM
  IC50: 960 nM
  TGI: 4.04 µM
A498; [11]
  CC50: > 50 µM
ACHN
  GI50: 656 nM
  TGI: 3.72 µM
ACHN; [11]
  CC50: > 50 µM
[8]
  GI50: 783 nM
  TGI: 3.64 µM
[8]; [11]
  CC50: > 50 µM
OVCAR-3
  GI50: 579 nM
  IC50: 580 nM
  TGI: 1870 nM
OVCAR-3; [11]
  CC50: 24.7 µM
IGROV-1
  GI50: 1060 nM
  LC50 (concentration killing 50% of cells): 50 µM
  TGI: 3.11 µM
SNB-75
  GI50: 1160 nM
  LC50 (lethal concentration, 50% net cell kill): 50 µM
  TGI: 4.5 µM
U-251 [9]
  GI50: 645 nM
  LC50 (concentration killing 50% of cells): 2920 nM
  TGI: 1370 nM
SF-539
  GI50: 890 nM
  LC50 (concentration killing 50% of cells): 21 µM
  TGI: 2420 nM
SF-295
  GI50: 306 nM
  IC50: 310 nM
  TGI: 1130 nM
SF-295; [11]
  CC50: 3.2 µM
HOP-62
  growth at 10 µM: -29.9%
A549 [10]
  growth at 10 µM: -14%
HL-60(TB)
  growth at 10 µM: -18.7%
